# Laboratory results reported in PubChem BioAssay (NCI).
#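 Compound exposure: 48 hours, 5 concentrations, 96-well plates. TGI marks complete inhibition of growth.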
# Tests used:
# Test in all cases: growth of human tumour cells (NCI), 48 h
# [1] = tested on: IGROV1 ovarian
# [2] = tested on: OVCAR-4 ovarian
# [3] = tested on: NCI-H226 lung
# [4] = tested on: K-562 leukemia
# [5] = tested on: UO-31 renal
# [6] = tested on: OVCAR-5 ovarian
# [7] = tested on: HT29 colon
# [8] = tested on: MDA-MB-435
# [9] = tested on: PC-3 prostate
# [10] = tested on: MCF7 breast
# [11] = tested on: UACC-62 melanoma
# [12] = tested on: A498 renal
# [13] = tested on: U251 CNS
# [14] = tested on: BT-549 breast
# [15] = tested on: SR leukemia
# [16] = tested on: NCI-H23 lung
# [17] = tested on: HCT-15 colon
# [18] = tested on: SNB-19 CNS
# [19] = tested on: A549 NSCLC
# [20] = tested on: COLO 205 colon
# [21] = tested on: HOP-62 NSCLC
# [22] = tested on: SK-MEL-2 melanoma
# [23] = tested on: SNB-75 CNS
# [24] = tested on: MDA-N
# [25] = tested on: HOP-92 NSCLC
# [26] = tested on: DU-145 prostate
# [27] = tested on: SN12C renal
# [28] = tested on: TK-10 renal
# [29] = tested on: SF-295 CNS
# [30] = tested on: SK-MEL-28 melanoma
# [31] = tested on: KM12 colon
# [32] = tested on: SK-OV-3 ovarian
# [33] = tested on: MALME-3M melanoma
# [34] = tested on: ACHN renal
# [35] = tested on: RPMI-8226 leukemia
# [36] = tested on: NCI/ADR-RES ovarian
# [37] = tested on: MOLT-4 leukemia
# [38] = tested on: EKVX NSCLC
# [39] = tested on: NCI-H522 lung
# [40] = tested on: T-47D breast
# [41] = tested on: CAKI-1 renal
# [42] = tested on: NCI-H460 lung
# [43] = tested on: OVCAR-3 ovarian
# [44] = tested on: 786-0 renal
# [45] = tested on: SK-MEL-5 melanoma
# [46] = tested on: MDA-MB-231 breast
# [47] = tested on: OVCAR-8 ovarian
# [48] = tested on: HCC-2998 colon
# [49] = tested on: M14 melanoma
# [50] = tested on: HCT-116 colon
# [51] = tested on: HS 578T breast
# [52] = tested on: SW-620 colon
# [53] = tested on: SF-268 CNS
# [54] = tested on: UACC-257 melanoma
# [55] = tested on: RXF 393 renal
# [56] = tested on: SF-539 CNS
# [57] = tested on: CCRF-CEM leukemia
# [58] = tested on: LOX IMVI melanoma
# [59] = tested on: HL-60(TB) leukemia
smiles,measurement,setting,value
CC1=c2c(oc3cc(O)c(Nc4c(C)cc(O)cc4O)c(C)c23)=CC(=O)C1=Nc1c(C)cc(O)cc1O,TGI,[1],> 100 µM
same,TGI,[2],> 100 µM
same,TGI,[3],> 100 µM
same,TGI,[4],> 100 µM
same,TGI,[5],> 100 µM
same,TGI,[6],> 100 µM
same,TGI,[7],94.9 µM
same,TGI,[8],33.5 µM
same,TGI,[9],> 100 µM
same,TGI,[10],> 100 µM
same,TGI,[11],> 100 µM
same,TGI,[12],> 100 µM
same,TGI,[13],> 100 µM
same,TGI,[14],> 100 µM
same,TGI,[15],> 100 µM
same,TGI,[16],50.4 µM
same,TGI,[17],> 100 µM
same,TGI,[18],> 100 µM
same,TGI,[19],> 100 µM
same,TGI,[20],42.1 µM
same,TGI,[21],> 100 µM
same,TGI,[22],> 100 µM
same,TGI,[23],88.3 µM
same,TGI,[24],40 µM
same,TGI,[25],> 100 µM
same,TGI,[26],> 100 µM
same,TGI,[27],73.7 µM
same,TGI,[28],> 100 µM
same,TGI,[29],70.1 µM
same,TGI,[30],> 100 µM
same,TGI,[31],94 µM
same,TGI,[32],> 100 µM
same,TGI,[33],54.3 µM
same,TGI,[34],> 100 µM
same,TGI,[35],> 100 µM
same,TGI,[36],> 100 µM
same,TGI,[37],> 100 µM
same,TGI,[38],> 100 µM
same,TGI,[39],63.1 µM
same,TGI,[40],> 100 µM
same,TGI,[41],> 100 µM
same,TGI,[42],> 100 µM
same,TGI,[43],55.3 µM
same,TGI,[44],> 100 µM
same,TGI,[45],35.1 µM
same,TGI,[46],> 100 µM
same,TGI,[47],> 100 µM
same,TGI,[48],55.7 µM
same,TGI,[49],85.3 µM
same,TGI,[50],68.5 µM
same,TGI,[51],> 100 µM
same,TGI,[52],> 100 µM
same,TGI,[53],> 100 µM
same,TGI,[54],> 100 µM
same,TGI,[55],> 100 µM
same,TGI,[56],56.3 µM
CC(=O)NC(Cc1cnc[nH]1)C(=O)N1CCCC1C(N)=O (stereo unspecified),TGI,[1],> 100 µM
same,TGI,[2],> 100 µM
same,TGI,[3],> 100 µM
same,TGI,[4],> 100 µM
same,TGI,[5],> 100 µM
same,TGI,[6],> 100 µM
same,TGI,[7],> 100 µM
same,TGI,[8],> 100 µM
same,TGI,[9],> 100 µM
same,TGI,[10],> 100 µM
same,TGI,[11],> 100 µM
same,TGI,[13],> 100 µM
same,TGI,[14],> 100 µM
same,TGI,[15],> 100 µM
same,TGI,[16],> 100 µM
same,TGI,[17],> 100 µM
same,TGI,[18],> 100 µM
same,TGI,[19],> 100 µM
same,TGI,[57],> 100 µM
same,TGI,[20],> 100 µM
same,TGI,[58],> 100 µM
same,TGI,[21],> 100 µM
same,TGI,[23],> 100 µM
same,TGI,[24],> 100 µM
same,TGI,[25],> 100 µM
same,TGI,[26],> 100 µM
same,TGI,[27],> 100 µM
same,TGI,[28],> 100 µM
same,TGI,[29],> 100 µM
same,TGI,[59],> 100 µM
same,TGI,[30],> 100 µM
same,TGI,[31],> 100 µM
same,TGI,[32],> 100 µM
same,TGI,[33],> 100 µM
same,TGI,[34],> 100 µM
same,TGI,[35],> 100 µM
same,TGI,[36],> 100 µM
same,TGI,[37],> 100 µM
same,TGI,[38],> 100 µM
same,TGI,[39],> 100 µM
same,TGI,[40],> 100 µM
same,TGI,[41],> 100 µM
same,TGI,[42],> 100 µM
same,TGI,[43],> 100 µM
same,TGI,[44],> 100 µM
same,TGI,[45],> 100 µM
same,TGI,[46],> 100 µM
same,TGI,[47],> 100 µM
same,TGI,[48],> 100 µM
same,TGI,[49],> 100 µM
same,TGI,[50],> 100 µM
same,TGI,[51],> 100 µM
same,TGI,[52],> 100 µM
same,TGI,[53],> 100 µM
same,TGI,[55],> 100 µM
CCOC(=O)c1nc2cc(C(F)(F)F)ccc2nc1Nc1ccc(OC)c(OC)c1,TGI,[1],> 100 µM
same,TGI,[4],> 100 µM
same,TGI,[5],> 100 µM
same,TGI,[6],> 100 µM
same,TGI,[7],> 100 µM
same,TGI,[8],> 100 µM
same,TGI,[9],> 100 µM
same,TGI,[10],> 100 µM
same,TGI,[11],> 100 µM
same,TGI,[12],> 100 µM
same,TGI,[14],> 100 µM
same,TGI,[15],> 100 µM
same,TGI,[16],> 100 µM
same,TGI,[17],> 100 µM
same,TGI,[18],> 100 µM
same,TGI,[19],> 100 µM
same,TGI,[57],> 100 µM
same,TGI,[20],> 100 µM
same,TGI,[58],> 100 µM
same,TGI,[21],> 100 µM
same,TGI,[23],> 100 µM
same,TGI,[24],> 100 µM
same,TGI,[25],> 100 µM
same,TGI,[26],> 100 µM
same,TGI,[27],> 100 µM
same,TGI,[28],> 100 µM
same,TGI,[29],> 100 µM
same,TGI,[59],> 100 µM
same,TGI,[30],> 100 µM
same,TGI,[31],> 100 µM
same,TGI,[32],> 100 µM
same,TGI,[33],> 100 µM
same,TGI,[34],> 100 µM
same,TGI,[35],> 100 µM
same,TGI,[36],> 100 µM
same,TGI,[37],> 100 µM
same,TGI,[38],> 100 µM
same,TGI,[39],> 100 µM
same,TGI,[40],> 100 µM
same,TGI,[41],> 100 µM
same,TGI,[42],> 100 µM
same,TGI,[43],> 100 µM
same,TGI,[44],> 100 µM
same,TGI,[45],> 100 µM
same,TGI,[46],> 100 µM
same,TGI,[47],> 100 µM
same,TGI,[48],> 100 µM
same,TGI,[49],> 100 µM
same,TGI,[50],> 100 µM
same,TGI,[51],> 100 µM
same,TGI,[52],> 100 µM
same,TGI,[53],> 100 µM
same,TGI,[54],> 100 µM
same,TGI,[55],> 100 µM
same,TGI,[56],> 100 µM
